Measured values reported in the NIST ThermoML archive (doi:10.1021/je101361u).
Numbers after ± are expanded uncertainties.

Conditions: 101.33 kPa, Liquid

## COCCOCCOC [2,5,8-trioxanonane]
283.15 K
  mass density: 953.66 ± 0.38 kg/m3
284.15 K
  mass density: 952.67 ± 0.38 kg/m3
285.15 K
  mass density: 951.69 ± 0.38 kg/m3
286.15 K
  mass density: 950.7 ± 0.38 kg/m3
287.15 K
  mass density: 949.71 ± 0.38 kg/m3
288.15 K
  mass density: 948.72 ± 0.38 kg/m3
289.15 K
  mass density: 947.73 ± 0.39 kg/m3
290.15 K
  mass density: 946.74 ± 0.39 kg/m3
291.15 K
  mass density: 945.75 ± 0.39 kg/m3
292.15 K
  mass density: 944.76 ± 0.39 kg/m3
293.15 K
  mass density: 943.76 ± 0.39 kg/m3
294.15 K
  mass density: 942.79 ± 0.39 kg/m3
295.15 K
  mass density: 941.79 ± 0.39 kg/m3
296.15 K
  mass density: 940.79 ± 0.39 kg/m3
297.15 K
  mass density: 939.8 ± 0.4 kg/m3
298.15 K
  mass density: 938.8 ± 0.4 kg/m3
299.15 K
  mass density: 937.8 ± 0.4 kg/m3
300.15 K
  mass density: 936.81 ± 0.4 kg/m3
301.15 K
  mass density: 935.81 ± 0.4 kg/m3
302.15 K
  mass density: 934.82 ± 0.4 kg/m3
303.15 K
  mass density: 933.82 ± 0.4 kg/m3
304.15 K
  mass density: 932.82 ± 0.4 kg/m3
305.15 K
  mass density: 931.82 ± 0.4 kg/m3
306.15 K
  mass density: 930.82 ± 0.41 kg/m3
307.15 K
  mass density: 929.83 ± 0.41 kg/m3
308.15 K
  mass density: 928.83 ± 0.41 kg/m3
309.15 K
  mass density: 927.82 ± 0.41 kg/m3
310.15 K
  mass density: 926.83 ± 0.41 kg/m3
311.15 K
  mass density: 925.82 ± 0.41 kg/m3
312.15 K
  mass density: 924.82 ± 0.41 kg/m3
313.15 K
  mass density: 923.82 ± 0.41 kg/m3
314.15 K
  mass density: 922.81 ± 0.42 kg/m3
315.15 K
  mass density: 921.81 ± 0.42 kg/m3
316.15 K
  mass density: 920.8 ± 0.42 kg/m3
317.15 K
  mass density: 919.8 ± 0.42 kg/m3
318.15 K
  mass density: 918.79 ± 0.42 kg/m3
319.15 K
  mass density: 917.78 ± 0.42 kg/m3
320.15 K
  mass density: 916.78 ± 0.42 kg/m3
321.15 K
  mass density: 915.77 ± 0.42 kg/m3
322.15 K
  mass density: 914.75 ± 0.43 kg/m3
323.15 K
  mass density: 913.75 ± 0.43 kg/m3
324.15 K
  mass density: 912.73 ± 0.43 kg/m3
325.15 K
  mass density: 911.72 ± 0.43 kg/m3
326.15 K
  mass density: 910.7 ± 0.43 kg/m3
327.15 K
  mass density: 909.69 ± 0.43 kg/m3
328.15 K
  mass density: 908.67 ± 0.43 kg/m3
329.15 K
  mass density: 907.65 ± 0.44 kg/m3
330.15 K
  mass density: 906.63 ± 0.44 kg/m3
331.15 K
  mass density: 905.62 ± 0.44 kg/m3
332.15 K
  mass density: 904.6 ± 0.44 kg/m3
333.15 K
  mass density: 903.59 ± 0.44 kg/m3

## ClCCCl [1,2-dichloroethane]
283.15 K
  mass density: 1267.39 ± 0.29 kg/m3
284.15 K
  mass density: 1265.95 ± 0.29 kg/m3
285.15 K
  mass density: 1264.5 ± 0.29 kg/m3
286.15 K
  mass density: 1263.05 ± 0.29 kg/m3
287.15 K
  mass density: 1261.6 ± 0.28 kg/m3
288.15 K
  mass density: 1260.15 ± 0.28 kg/m3
289.15 K
  mass density: 1258.7 ± 0.28 kg/m3
290.15 K
  mass density: 1257.25 ± 0.28 kg/m3
291.15 K
  mass density: 1255.8 ± 0.28 kg/m3
292.15 K
  mass density: 1254.35 ± 0.28 kg/m3
293.15 K
  mass density: 1252.89 ± 0.28 kg/m3
294.15 K
  mass density: 1251.44 ± 0.28 kg/m3
295.15 K
  mass density: 1249.98 ± 0.28 kg/m3
296.15 K
  mass density: 1248.52 ± 0.27 kg/m3
297.15 K
  mass density: 1247.07 ± 0.27 kg/m3
298.15 K
  mass density: 1245.61 ± 0.27 kg/m3
299.15 K
  mass density: 1244.15 ± 0.27 kg/m3
300.15 K
  mass density: 1242.69 ± 0.27 kg/m3
301.15 K
  mass density: 1241.22 ± 0.27 kg/m3
302.15 K
  mass density: 1239.76 ± 0.27 kg/m3
303.15 K
  mass density: 1238.29 ± 0.27 kg/m3
304.15 K
  mass density: 1236.83 ± 0.26 kg/m3
305.15 K
  mass density: 1235.36 ± 0.26 kg/m3
306.15 K
  mass density: 1233.89 ± 0.26 kg/m3
307.15 K
  mass density: 1232.42 ± 0.26 kg/m3
308.15 K
  mass density: 1230.95 ± 0.26 kg/m3
309.15 K
  mass density: 1229.47 ± 0.26 kg/m3
310.15 K
  mass density: 1228 ± 0.26 kg/m3
311.15 K
  mass density: 1226.53 ± 0.26 kg/m3
312.15 K
  mass density: 1225.05 ± 0.26 kg/m3
313.15 K
  mass density: 1223.57 ± 0.25 kg/m3
314.15 K
  mass density: 1222.09 ± 0.25 kg/m3
315.15 K
  mass density: 1220.61 ± 0.25 kg/m3
316.15 K
  mass density: 1219.13 ± 0.25 kg/m3
317.15 K
  mass density: 1217.64 ± 0.25 kg/m3
318.15 K
  mass density: 1216.16 ± 0.25 kg/m3
319.15 K
  mass density: 1214.67 ± 0.25 kg/m3
320.15 K
  mass density: 1213.18 ± 0.25 kg/m3
321.15 K
  mass density: 1211.69 ± 0.24 kg/m3
322.15 K
  mass density: 1210.2 ± 0.24 kg/m3
323.15 K
  mass density: 1208.7 ± 0.24 kg/m3
324.15 K
  mass density: 1207.21 ± 0.24 kg/m3
325.15 K
  mass density: 1205.71 ± 0.24 kg/m3
326.15 K
  mass density: 1204.21 ± 0.24 kg/m3
327.15 K
  mass density: 1202.71 ± 0.24 kg/m3
328.15 K
  mass density: 1201.21 ± 0.24 kg/m3
329.15 K
  mass density: 1199.7 ± 0.23 kg/m3
330.15 K
  mass density: 1198.19 ± 0.23 kg/m3
331.15 K
  mass density: 1196.69 ± 0.23 kg/m3
332.15 K
  mass density: 1195.18 ± 0.23 kg/m3
333.15 K
  mass density: 1193.66 ± 0.23 kg/m3
